Source: patent publication US10420734B2, “Method of treating cancer using selective estrogen receptor modulators” (Duke University, priority 2014, dated 2019)
“Also recorded” adds a separate entry of the source.

Biological target: T1, ESR1 (Homo sapiens, UniProt P03372)
T1 sequence (P03372 1-595): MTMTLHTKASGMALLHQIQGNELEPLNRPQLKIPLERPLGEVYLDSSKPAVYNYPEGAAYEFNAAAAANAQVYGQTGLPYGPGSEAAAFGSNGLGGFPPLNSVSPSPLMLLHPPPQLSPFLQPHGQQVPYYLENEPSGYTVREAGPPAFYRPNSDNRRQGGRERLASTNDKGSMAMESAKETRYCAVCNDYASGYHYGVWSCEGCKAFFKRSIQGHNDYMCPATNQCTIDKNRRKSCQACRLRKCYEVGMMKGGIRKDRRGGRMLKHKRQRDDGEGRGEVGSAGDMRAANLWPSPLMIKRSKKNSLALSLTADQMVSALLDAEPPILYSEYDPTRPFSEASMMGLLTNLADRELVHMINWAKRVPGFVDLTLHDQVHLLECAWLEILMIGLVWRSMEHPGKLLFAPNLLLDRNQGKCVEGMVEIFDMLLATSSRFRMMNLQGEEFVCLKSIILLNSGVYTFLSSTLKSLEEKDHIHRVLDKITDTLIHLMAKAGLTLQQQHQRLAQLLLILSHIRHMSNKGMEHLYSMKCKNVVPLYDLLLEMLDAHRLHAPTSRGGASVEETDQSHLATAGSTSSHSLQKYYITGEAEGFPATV
Assay: Mammalian two-hybrid conformational profiling of ESR1 with peptide probes in SKBR3 cells
Type: cell-based
Set-up: expressed in transfected cells; host or cells: SKBR3
Experimental: Triplicate wells of SKBR3 cells were transfected (Lipofectin per manufacturer's instructions) with plasmids expressing ERα fused to VP16 together with Gal4DBD alone (control) or fused to ER interacting peptides noted on the horizontal axis. Cells were then treated with RAD1901 (1 nM-1 μM) or the indicated ER ligands (100 nM). Interaction of ERα with the Gal4DBD peptide constructs was detected through activation of a Gal4 responsive luciferase reporter construct and was normalized to detected β-galactosidase activity generated by a co-transfected constitutive expression vector. Ligand classes recognized by each probe are indicated below the graph.
Mammalian 2-hybrid analysis of VP16-ESR1 with conformation-selective peptide probes was performed essentially as previously described (Wardell et al., (2012) Mol Endocrinol 26 (7):1235-1248).
The expression of ESR1 target genes responsive to (FIG. 10A) agonists, (FIG. 10B) primarily SERMs, or (FIG. 10C) SERMs and agonists was analyzed as in FIG. 5. Relative changes of these and additional target genes designed to evaluate dose dependent response to RAD1901 are presented in FIG. 11. Significant target gene regulation (*p<0.05) as compared to the vehicle control was detected by 2 way ANOVA followed by Fisher's LSD (Graphpad Prism 6). […] Triplicate wells of SKBR3 cells were transfected with plasmids expressing ESR1 fused to VP16 together with Gal4DBD alone (control) or Gal4DBD fused to ESR1 interacting peptides noted on the horizontal axis. Cells were then treated with the indicated ESR1 ligands (10^−7 M unless otherwise indicated). Interaction of ESR1 with the Gal4DBD peptide constructs was detected through activation of a Gal4-responsive luciferase reporter construct and was normalized to detected β-galactosidase activity expressed in a constitutive manner using a second vector. Normalized response was expressed as fold increase over the detected level of interaction between Gal4DBD alone and ESR1-VP16 in the absence of ligand (Veh). For FIG. 10E, the effect of SERMs and SERDs (10^−6 M) on the proliferation of MCF7 cells in response to E2 (10^−9 M) or insulin (2×10^−9 M) was evaluated as in FIG. 5. Statistically similar treatments (2-way ANOVA followed by Bonferroni comparison) are indicated by letters. […] The expression of ESR1 target genes responsive to (A) agonists, (B) primarily SERMs, or (C) SERMs and agonists was analyzed using RT qPCR following RNA isolation. mRNA expression was normalized (ΔΔCT analysis) to the similarly detected 36B4 housekeeping. The profiles presented in dendogram format were analyzed with the Ward hierarchical clustering algorithm (JMP 11) using standardized data.

interaction of αII peptide (hinge region surface): significant interaction | interaction with peptides reporting ESR1 structures adopted upon binding tamoxifen (aβV) or ICI (βI2): No interaction was observed | interaction with peptides that report on agonist activity (ASC1 and PGC1): decreased interaction
SMILES: CCNCCc1ccc(CN(CC)c2cc(OC)ccc2[C@@H]2CCc3cc(O)ccc3C2)cc1 [RAD1901, (R)-6-{2-{ethyl[4-(2-ethylaminoethyl)benzyl]amino}-4-methoxyphenyl}-5,6,7,8-tetrahydronaphthalen-2-ol]
ESR1 conformation / peptide interaction profile: induces a unique conformation of ERα; also recorded: completely distinct from any other known ligand
